# Source: patent publication US20210363110A1, “4-METHYLDIHYDROPYRIMIDINONE COMPOUNDS AND PHARMACEUTICAL USE THEREOF” (Japan Tobacco Inc., priority 2018, published 2021)
# Molecular target: T1, human RORγ (Homo sapiens, UniProt P51449)
# T1 construct: from Ser253 to Lys518 for human RORγ; expressed in transfected cells; host or cells: CHO cells (transient co-transfection with pG5-Luc)
# T1 sequence (P51449 253-518): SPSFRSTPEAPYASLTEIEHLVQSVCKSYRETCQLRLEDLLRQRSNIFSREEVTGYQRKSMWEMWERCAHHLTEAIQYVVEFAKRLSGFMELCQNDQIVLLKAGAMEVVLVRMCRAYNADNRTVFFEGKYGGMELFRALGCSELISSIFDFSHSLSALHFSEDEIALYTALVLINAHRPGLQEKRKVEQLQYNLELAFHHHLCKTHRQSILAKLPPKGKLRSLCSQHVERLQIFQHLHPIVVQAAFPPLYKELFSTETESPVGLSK
# Test: Reporter gene assay for inhibitory effect against RORγ transcriptional activity (GAL4-hRORγ LBD, luciferase, CHO cells)
# Type: cell-based
# Settings: pFA/hRORγ + pG5-Luc, 2 days incubation
# Method: Inhibitory effect against RORγ transcriptional activity was assessed by reporter gene assay for test compounds.
# cDNAs encoding human and mouse RORγ ligand binding domains (LBD) were obtained based on the sequences of human RORγ (Genbank registered number NM_005060.3) and mouse RORγ (Genbank registered number NM_011281.2) (LBD sequences: from Ser253 to Lys518 for human RORγ; from Ile251 to Lys516 for mouse RORγ).
# LBD cDNAs of human and mouse RORγ were inserted into pFA-CMV vector (Agilent Technologies, Inc.), which expresses GAL4-DNA binding domain fusion protein. The resulting plasmids are hereinafter referred to as pFA/hRORγ plasmid and pFA/mRORγ plasmid, respectively. […]
# Cell viability was tested by luminescence method with CellTiter-Glo (Promega). […] Ten minutes after the addition, luminescence was measured for each well with a microplate reader. The luminescence count in the cells treated with 0.2% DMSO alone was defined as 100%, and the cell viability after treatment with the test compound was calculated as a percentage (%-of-control) based on the value of 0.2% DMSO alone. When the cell viability was 70% or less, a test compound was assessed to have cytotoxicity.
# RORγ transcriptional activity was detected as the intracellular luciferase activity using SteadyLite HTS Reporter Gene Assay System (Perkin Elmer). […]
row,EC50 [µM],Compound
1,0.023,"CC(C)C1=CN(C23CC(C(=O)O)(C2)C3)C(=O)N[C@@]1(C)c1ccc([C@@H]2C[C@H]2C(C)(C)C)c(Cl)c1 [Compound (1), 3-{(S)-4-[4-((1R,2R)-2-tert-Butyl-cyclopropyl)-3-chloro-phenyl]-5-isopropyl-4-methyl-2-oxo-3,4-dihydro-2H-pyrimidin-1-yl}bicyclo[1.1.1]pentane-1-carboxylic acid]"
2,0.014,"CC[C@H](C)C1=CN(C23CC(C(=O)O)(C2)C3)C(=O)N[C@@]1(C)c1ccc([C@@H]2C[C@H]2C(C)(C)C)c(Cl)c1 [Compound (2), 3-{(S)-5-((S)-sec-Butyl)-4-[4-((1R,2R)-2-tert-butyl-cyclopropyl)-3-chloro-phenyl]-4-methyl-2-oxo-3,4-dihydro-2H-pyrimidin-1-yl}bicyclo[1.1.1]pentane-1-carboxylic acid]"
